Patent publication US20250179017A1 (GUANGDONG NEWOPP BIOPHARMACEUTICALS CO., LTD., priority 2022, published 2025)

Target: T1, human EP2 (PTGER2) (Homo sapiens, UniProt P43116)
T1 construct: Cayman Chemical (Human EP2 Reporter Assay Kit)
Assay: EP2 antagonist assay (HEK-293 CNG membrane potential cAMP assay / 293T SEAP reporter assay, PGE2-stimulated)
Type: cell-based
Settings: EP2 antagonist activity; concentration for 50% inhibition of signal compared to DMSO
From the text: 1. The HEK-293 CNG (Cyclic Nucleotide Gated) cell line expressing a modified CNG channel that leads to cell membrane depolarization in response to elevated intracellular cAMP levels, which can be measured using a fluorescent membrane potential dye, was engineered to express human EP2 (PTGER2) or EP4 (EP4R). The resulting cell line ACTOne™ PTGER2 or ACTOne™ EP4R as well as the fluorescent membrane potential dye were purchased from eEnzyme (Gaithersburg, MD, US) and used in this assay. Briefly, cells were plated at 1.2×10^4 cells/well in 20 μL DMEM supplemented with 2% Fetal Bovine Serum (FBS, VWR International), 1x Penicillin/Streptomycin (GenClone), 0.2 μg/mL puromycin (InvivoGen) and 50 μg/mL G418 (InvivoGen) on a 384 well plate (Greiner). The next day, cells were dye-loaded with 20 μL/well of 1x Dye-loading solution (eENZYME) following the manufacturer's instruction. After 2 hours of incubation at room temperature (RT) in the dark, a pre-read was made to obtain the background signals using CLARIOstar plate reader (BMG LABTECH, Germany) with the following filter settings: excitation=530/20 nm, emission=590/20 nm. Next, a serial dilution of compound (plus a DMSO control) were added to the plate (5 μL/well) and the reaction was incubated at RT for 15 min before adding 5 μL of PGE2 to every well for a final concentration of 5 nM. All wells were duplicated. The plate was then further incubated at RT for 30 min prior to a final read with the same machine settings. Background-subtracted signals were used to calculate IC50 values.
2. Human EP2 and EP4 Reporter Assay Kits were purchased from Cayman Chemical (Ann Arbor, MI, USA). The assay was performed following the provided User Manual. Briefly, a reverse transfection was performed by seeding 6.0×10^4 of 293T cells (ATCC) to each well of the provided Strip Plate coated with a proprietary transfection complex containing DNA constructs for expressing human EP2 or EP4 and a cAMP response element regulated secreted alkaline phosphatase (SEAP) reporter, in 200 μL DMEM supplemented with 2% FBS and incubated for 20-24 hours at 37° C. with 5% CO2. After the incubation, the culture medium was carefully removed, and the cells were replenished with 150 μL pre-warmed serum-free medium. PGE2 and test compounds were prepared together at 4x the desired final concentration, and 50 μL was added to each assigned well with the final concentration of 13 nM and 2 nM PGE2 for EP2 and EP4 assay, respectively. After 6-8 hours of incubation, 10 μL media from each well was transferred to corresponding well of a new plate, which was then sealed and incubated at 65° C. for 30 min. The plate was then cooled down to RT and 50 μL SEAP substrate was added to each well. Luminescence signal was measured using a CLARIOstar plate reader.
The IC50 value was determined as the concentration for 50% inhibition of signal compared to DMSO (A: IC50 […]; B: IC50 between 100 nM and 1,000 nM; C: IC50≥1,000 nM).

T1 sequence (P43116 whole entry): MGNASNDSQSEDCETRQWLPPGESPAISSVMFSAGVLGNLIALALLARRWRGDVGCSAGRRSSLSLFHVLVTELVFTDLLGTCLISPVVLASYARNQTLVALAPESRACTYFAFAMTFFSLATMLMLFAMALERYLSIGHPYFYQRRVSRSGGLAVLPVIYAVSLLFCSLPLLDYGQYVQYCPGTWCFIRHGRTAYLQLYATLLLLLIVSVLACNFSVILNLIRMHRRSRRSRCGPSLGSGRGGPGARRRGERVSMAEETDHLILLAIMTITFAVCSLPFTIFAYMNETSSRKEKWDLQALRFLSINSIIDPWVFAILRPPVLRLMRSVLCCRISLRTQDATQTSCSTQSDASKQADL

IC50, 100 to 1000 nM:
O=C(O)c1ccc(CNC(=O)c2ccc(-c3ccccc3)c3ccn(Cc4ccc(C(F)(F)F)cc4)c23)cc1 [Example 26, 4-((4-phenyl-1-(4-(trifluoromethyl)benzyl)-1H-indole-7-carboxamido)methyl)benzoic acid]
O=C(O)c1ccc(C2(NC(=O)c3ccc(-c4cc(F)cc(F)c4)c4ccn(Cc5ccc(C(F)(F)F)cc5)c34)CC2)cc1 [Example 39, 4-(1-(4-(3,5-difluorophenyl)-1-(4-(trifluoromethyl)benzyl)-1H-indole-7-carboxamido)cyclopropyl)benzoic acid]
CN(c1ccccc1)c1cc(C(=O)NCc2ccc(C(=O)O)cc2)c2c(ccn2Cc2ccc(C(F)(F)F)cc2)c1 [Example 45, 4-((5-(methyl(phenyl)amino)-1-(4-(trifluoromethyl)benzyl)-1H-indole-7-carboxamido)methyl)benzoic acid]
O=C(O)c1ccc(C2(NC(=O)c3cc(Oc4ccccc4)cc4ccn(Cc5ccc(C(F)(F)F)cc5)c34)CC2)cc1 [Example 49, 4-(1-(5-phenoxy-1-(4-(trifluoromethyl)benzyl)-1H-indole-7-carboxamido)cyclopropyl)benzoic acid]

IC50, < 100 nM:
O=C(O)c1ccc(C2(NC(=O)c3cc(Nc4ccccc4)cc4ccn(Cc5ccc(C(F)(F)F)cc5)c34)CC2)cc1 [Example 43, 4-(1-(5-(phenylamino)-1-(4-(trifluoromethyl)benzyl)-1H-indole-7-carboxamido)cyclopropyl)benzoic acid]

IC50, ≥ 1000 nM:
O=C(O)c1ccc(CNC(=O)c2ccc(-c3ccc(F)c(F)c3)c3ccn(Cc4ccc(C(F)(F)F)cc4)c23)cc1 [Example 23, 4-((4-(3,4-difluorophenyl)-1-(4-(trifluoromethyl)benzyl)-1H-indole-7-carboxamido)methyl) benzoic acid]
O=C(O)c1ccc(CNC(=O)c2ccc(-c3cccc(C(F)(F)F)c3)c3ccn(Cc4ccc(C(F)(F)F)cc4)c23)cc1 [Example 24, 4-((1-(4-(trifluoromethyl)benzyl)-4-(3-(trifluoromethyl)phenyl)-1H-indole-7-carboxamido)-methyl)benzoic acid]
O=C(O)c1ccc(CNC(=O)c2ccc(-c3ccc(F)cc3)c3ccn(Cc4ccc(C(F)(F)F)cc4)c23)cc1 [Example 25, 4-((4-(4-fluorophenyl)-1-(4-(trifluoromethyl)benzyl)-1H-indole-7-carboxamido)methyl)benzoic acid]
O=C(O)c1ccc(CNC(=O)c2ccc(-c3cc(F)cc(F)c3)c3ccn(Cc4ccc(C(F)(F)F)cc4)c23)cc1 [Example 27, 4-((4-(3,5-difluorophenyl)-1-(4-(trifluoromethyl)benzyl)-1H-indole-7-carboxamido)methyl) benzoic acid]
O=C(O)c1ccc(CNC(=O)c2ccc(-c3cc(F)cc(C(F)(F)F)c3)c3ccn(Cc4ccc(C(F)(F)F)cc4)c23)cc1 [Example 28, 4-((4-(3-fluoro-5-(trifluoromethyl)phenyl)-1-(4-(trifluoromethyl)benzyl)-1H-indole-7-carboxamido)methyl)benzoic acid]
C[C@@H](NC(=O)c1ccc(-c2ccccc2)c2ccn(Cc3ccc(C(F)(F)F)cc3)c12)c1ccc(C(=O)O)cc1 [Example 29, (R)-4-(1-(4-phenyl-1-(4-(trifluoromethyl)benzyl)-1H-indole-7-carboxamido)ethyl) benzoic acid]
C[C@@H](NC(=O)c1ccc(-c2cccc(C#N)c2)c2ccn(Cc3ccc(C(F)(F)F)cc3)c12)c1ccc(C(=O)O)cc1 [Example 30, (R)-4-(1-(4-(3-cyanophenyl)-1-(4-(trifluoromethyl)benzyl)-1H-indole-7-carboxamido)ethyl) benzoic acid]
C[C@@H](NC(=O)c1ccc(-c2ccc(F)c(F)c2)c2ccn(Cc3ccc(C(F)(F)F)cc3)c12)c1ccc(C(=O)O)cc1 [Example 31, (R)-4-(1-(4-(3,4-difluorophenyl)-1-(4-(trifluoromethyl)benzyl)-1H-indole-7-carboxamido)ethyl)benzoic acid]
C[C@@H](NC(=O)c1ccc(-c2cc(F)cc(F)c2)c2ccn(Cc3ccc(C(F)(F)F)cc3)c12)c1ccc(C(=O)O)cc1 [Example 32, (R)-4-(1-(4-(3,5-difluorophenyl)-1-(4-(trifluoromethyl)benzyl)-1H-indole-7-carboxamido)ethyl) benzoic acid]
C[C@@H](NC(=O)c1ccc(-c2cccc(C(F)(F)F)c2)c2ccn(Cc3ccc(C(F)(F)F)cc3)c12)c1ccc(C(=O)O)cc1 [Example 33, (R)-4-(1-(1-(4-(trifluoromethyl)benzyl)-4-(3-(trifluoromethyl)phenyl)-1H-indole-7-carboxamido)ethyl) benzoic acid]
C[C@@H](NC(=O)c1ccc(-c2cc(F)cc(C(F)(F)F)c2)c2ccn(Cc3ccc(C(F)(F)F)cc3)c12)c1ccc(C(=O)O)cc1 [Example 34, (R)-4-(1-(4-(3-fluoro-5-(trifluoromethyl)phenyl)-1-(4-(trifluoromethyl)benzyl)-1H-indole-7-carboxamido)ethyl)benzoic acid]
C[C@@H](NC(=O)c1ccc(-c2ccc(F)cc2)c2ccn(Cc3ccc(C(F)(F)F)cc3)c12)c1ccc(C(=O)O)cc1 [Example 35, (R)-4-(1-(4-(4-fluorophenyl)-1-(4-(trifluoromethyl)benzyl)-1H-indole-7-carboxamido)ethyl)benzoic acid]
O=C(O)c1ccc(C2(NC(=O)c3ccc(-c4ccccc4)c4ccn(Cc5ccc(C(F)(F)F)cc5)c34)CC2)cc1 [Example 36, 4-(1-(4-phenyl-1-(4-(trifluoromethyl)benzyl)-1H-indole-7-carboxamido)cyclopropyl)benzoic acid]
N#Cc1cccc(-c2ccc(C(=O)NC3(c4ccc(C(=O)O)cc4)CC3)c3c2ccn3Cc2ccc(C(F)(F)F)cc2)c1 [Example 37, 4-(1-(4-(3-cyanophenyl)-1-(4-(trifluoromethyl)benzyl)-1H-indole-7-carboxamido)cyclopropyl)benzoic acid]
O=C(O)c1ccc(C2(NC(=O)c3ccc(-c4ccc(F)c(F)c4)c4ccn(Cc5ccc(C(F)(F)F)cc5)c34)CC2)cc1 [Example 38, 4-(1-(4-(3,4-difluorophenyl)-1-(4-(trifluoromethyl)benzyl)-1H-indole-7-carboxamido)cyclopropyl)benzoic acid]
O=C(O)c1ccc(C2(NC(=O)c3ccc(-c4cccc(C(F)(F)F)c4)c4ccn(Cc5ccc(C(F)(F)F)cc5)c34)CC2)cc1 [Example 40, 4-(1-(1-(4-(trifluoromethyl)benzyl)-4-(3-(trifluoromethyl)phenyl)-1H-indole-7-carboxamido)cyclopropyl)benzoic acid]
O=C(O)c1ccc(C2(NC(=O)c3ccc(-c4cc(F)cc(C(F)(F)F)c4)c4ccn(Cc5ccc(C(F)(F)F)cc5)c34)CC2)cc1 [Example 41, 4-(1-(4-(3-fluoro-5-(trifluoromethyl)phenyl)-1-(4-(trifluoromethyl)benzyl)-1H-indole-7-carboxamido)cyclopropyl)benzoic acid]
O=C(O)c1ccc(C2(NC(=O)c3ccc(-c4ccc(F)cc4)c4ccn(Cc5ccc(C(F)(F)F)cc5)c34)CC2)cc1 [Example 42, 4-(1-(4-(4-fluorophenyl)-1-(4-(trifluoromethyl)benzyl)-1H-indole-7-carboxamido)cyclopropyl)-benzoic acid]
CN(c1ccccc1)c1ccc(C(=O)NC2(c3ccc(C(=O)O)cc3)CC2)c2c1ccn2Cc1ccc(C(F)(F)F)cc1 [Example 46, 4-(1-(4-(methyl(phenyl)amino)-1-(4-(trifluoromethyl)benzyl)-1H-indole-7-carboxamido)cyclopropyl)benzoic acid]
O=C(O)c1ccc(CNC(=O)c2cc(Nc3ccccc3)cc3ccn(Cc4ccc(C(F)(F)F)cc4)c23)cc1 [Example 47, 4-((5-(phenylamino)-1-(4-(trifluoromethyl)benzyl)-1H-indole-7-carboxamido)methyl)benzoic acid]
